Converted amounts (≈) assume the structure as drawn.
Legend:
[1] = Kinetic solubility in aqueous media (nephelometry); assay type: physicochemical; conditions: phosphate citrate buffer, pH 7.4, aqueous buffer, kinetic from dmso stock, phosphate citrate buffer pH 7.4, turbidity of three dilution steps; read-out: Solubility Score
Procedure, shortened: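 DMSO stock (5 mM) diluted in three consecutive steps into phosphate citrate buffer pH 7.4, in triplicate; turbidity of each dilution read by nephelometry immediately after the last step. Compounds ranked into 3 classes: score 3 if first dilution clear, 2 if first unclear but second clear.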

[2] = test system: A2780 ovarian carcinoma cells; assay: Antiproliferative activity on A2780 cells (MTT); assay type: cell-based, human; conditions: Homo sapiens, A2780, 96 h, four days of incubation, read-out: Cellular activity pIC50 (converted)
Procedure, shortened: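 A2780 ovarian carcinoma cells were seeded at 1500 cells/well and exposed to compound for four days, with DMSO ≤0.1%. Viability was measured by MTT (2 h, 37° C) and expressed as a percentage of untreated controls after blank subtraction. Initial single-point testing was at 10^−6 M, then full curves gave pIC50.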

[3] = target: histone deacetylase (HeLa nuclear extracts); assay: In vitro assay for inhibition of histone deacetylase; assay type: biochemical; conditions: [3H]acetylated histone H4 peptide substrate

melting point | solubility [1] | IC50 [2] | Enzyme activity pIC50 [3] | SMILES
146.9 °C |  |  |  | O=C(NO)c1cnc(N2CCN(S(=O)(=O)c3ccc(-c4ccccc4OCCN4CCCC4)cc3)CC2)nc1 (hydrate or solvate) [Co. No. 125]
192 °C |  |  |  | CN(C)Cc1sccc1-c1ccc(S(=O)(=O)N2CCN(c3ncc(C(=O)NO)cn3)CC2)cc1 [Co. No. 124]
243 °C |  |  |  | O=C(NO)c1cnc(N2CCN(S(=O)(=O)c3ccc(-c4cccc(CCN5CCCC5)c4)cc3)CC2)nc1 [Co. No. 127]
200 °C | < 75.8 µM | > 10000 nM | <5 | CC(=O)Nc1ccc(N2CCN(S(=O)(=O)c3ccc4ccccc4c3)CC2)cc1 [Compound 3]
210 °C | 75.8 to 454 µM (≈ 32.3 to 194 µg/mL) | > 10000 nM | <5 | O=C(NO)Nc1ccc(N2CCN(S(=O)(=O)c3ccc4ccccc4c3)CC2)cc1 [Compound 4]
252 °C |  | > 10000 nM | <5 | Cn1cnc(C(=O)Nc2ccc(N3CCN(S(=O)(=O)c4ccc5ccccc5c4)CC3)cc2)c1 [Compound 5]
226 °C |  | 3880 nM | <5 | O=C(Nc1ccc(N2CCN(S(=O)(=O)c3ccc4ccccc4c3)CC2)cc1)/C(Cc1ccccc1)=N/O [Compound 9]
179 °C | < 75.8 µM | > 10000 nM | 6.7 | CC(=O)SCC(=O)c1ccc(N2CCN(S(=O)(=O)c3ccc4ccccc4c3)CC2)cc1 [Compound 10]
196 °C |  | 1010 nM | <5 | O=C(NO)c1ccc(N2CCN(S(=O)(=O)c3ccc4ccccc4c3)CC2)cc1C(F)(F)F [Compound 11]
197 °C |  | 8200 nM | <5 | CCOc1nc(N2CCN(S(=O)(=O)c3ccc4ccccc4c3)CC2)ncc1C(=O)NO [Compound 12]
238 °C | < 75.8 µM | 442 nM | <5 | Nc1ccccc1NC(=O)c1cnc(N2CCN(S(=O)(=O)c3ccc4ccccc4c3)CC2)nc1 [Compound 13]
200 °C |  | > 10000 nM | <5 | CN(C)C(=O)c1ccc(N2CCN(S(=O)(=O)c3ccc4ccccc4c3)CC2)nn1 [Compound 113]
135 °C |  | 2020 nM | <5 | CN(C)c1nc(N2CCN(S(=O)(=O)c3ccc4ccccc4c3)CC2)ncc1C(=O)NO [Compound 115]
249 °C | < 75.8 µM | 861 nM | 7.159 | O=C(NO)c1cnc(N2CCN(S(=O)(=O)c3ccc4ccccc4c3)CC2)cn1 [Compound 116]
210 °C | > 454 µM | 5300 nM | 6.741 | NC(=O)C1CN(c2ncc(C(=O)NO)cn2)CCN1S(=O)(=O)c1ccc2ccccc2c1 (stereo not drawn) [Compound 118]
225 °C |  | > 10000 nM | 5.215 | O=C(NO)c1cnc(N2CCN(S(=O)(=O)c3ccc4ccccc4c3)CC2)nc1NO [Compound 119]
166 °C |  | > 10000 nM | 7.06 | O=C(NO)c1cnc(N2CCN(S(=O)(=O)c3ccc4ccccc4c3)C(C(=O)NO)C2)nc1 (stereo not drawn) [Compound 122]
 | > 454 µM | 137 nM | 8.152 | CN(CCO)Cc1sccc1-c1ccc(S(=O)(=O)N2CCN(c3ncc(C(=O)NO)cn3)CC2)cc1 [Compound 151]
 | > 454 µM | 164 nM | 8.156 | O=C(NO)c1cnc(N2CCN(S(=O)(=O)c3ccc(-c4ccsc4CN4CCN(CCO)CC4)cc3)CC2)nc1 [Compound 152]
 | < 75.8 µM | 64 nM | 8.869 | CN(C)CCCOc1ccccc1-c1ccc(S(=O)(=O)N2CCN(c3ncc(C(=O)NO)cn3)CC2)cc1 [Compound 154]
 | > 454 µM | 96.2 nM | 8.228 | CN1CCN(Cc2ccccc2-c2ccc(S(=O)(=O)N3CCN(c4ncc(C(=O)NO)cn4)CC3)cc2)CC1 [Compound 157]
 | 75.8 to 454 µM (≈ 40.8 to 245 µg/mL) | 446 nM | 7.784 | O=C(NO)c1cnc(N2CCN(S(=O)(=O)c3ccc(-c4ccccc4CN4CCOCC4)cc3)CC2)nc1 [Compound 158]
 | > 454 µM | 95.9 nM | 8.61 | CN(C)CCN(C)Cc1ccccc1-c1ccc(S(=O)(=O)N2CCN(c3ncc(C(=O)NO)cn3)CC2)cc1 [Compound 159]

melting point | solubility [1] | IC50 [2] | Enzyme activity pIC50 [3] | SMILES
 | 75.8 to 454 µM (≈ 42.2 to 253 µg/mL) | 278 nM | 8.272 | O=C(NO)c1cnc(N2CCN(S(=O)(=O)c3ccc(-c4ccccc4CN(CCO)CCO)cc3)CC2)nc1 [Compound 160]
 | 75.8 to 454 µM (≈ 42 to 252 µg/mL) | 48.3 nM | 8.308 | CN(C)CCN(C)Cc1ccc(-c2ccc(S(=O)(=O)N3CCN(c4ncc(C(=O)NO)cn4)CC3)cc2)cc1 [Compound 164]
 | < 75.8 µM | 55.6 nM | 7.947 | O=C(NO)c1cnc(N2CCN(S(=O)(=O)c3ccc(-c4ccc(CN5CCN(CCOCCO)CC5)cc4)cc3)CC2)nc1 [Compound 165]
 | < 75.8 µM | 61.4 nM | 7.969 | O=C(NO)c1cnc(N2CCN(S(=O)(=O)c3ccc(-c4ccc(CN5CCN(CCO)CC5)cc4)cc3)CC2)nc1 [Compound 166]
 | > 454 µM | 108 nM | 7.579 | O=C(NO)c1cnc(N2CCN(S(=O)(=O)c3ccc(-c4cccc(CN5CCOCC5)c4)cc3)CC2)nc1 [Compound 167]
 | > 454 µM | 63.8 nM | 8.766 | CN(C)Cc1cccc(-c2ccc(S(=O)(=O)N3CCN(c4ncc(C(=O)NO)cn4)CC3)cc2)c1 [Compound 168]
 | > 454 µM | 72.4 nM | 8.338 | CN1CCN(Cc2cccc(-c3ccc(S(=O)(=O)N4CCN(c5ncc(C(=O)NO)cn5)CC4)cc3)c2)CC1 [Compound 169]
 | > 454 µM | 65.3 nM | 8.227 | CC(C)N(C)Cc1cccc(-c2ccc(S(=O)(=O)N3CCN(c4ncc(C(=O)NO)cn4)CC3)cc2)c1 [Compound 170]
 | > 454 µM | 47.1 nM | 8.45 | O=C(NO)c1cnc(N2CCN(S(=O)(=O)c3ccc(-c4cccc(CN5CCCC5)c4)cc3)CC2)nc1 [Compound 171]
 | > 454 µM | 64.4 nM | 8.566 | CN(C)CCc1cccc(-c2ccc(S(=O)(=O)N3CCN(c4ncc(C(=O)NO)cn4)CC3)cc2)c1 [Compound 172]
 | > 454 µM | 70.5 nM | 8.423 | CC(C)N(C)CCc1cccc(-c2ccc(S(=O)(=O)N3CCN(c4ncc(C(=O)NO)cn4)CC3)cc2)c1 [Compound 173]
 | > 454 µM | 80.4 nM | 8.212 | CN1CCN(CCc2cccc(-c3ccc(S(=O)(=O)N4CCN(c5ncc(C(=O)NO)cn5)CC4)cc3)c2)CC1 [Compound 174]
 | < 75.8 µM | 68.9 nM | 7.691 | COc1ccc(-c2ccc(S(=O)(=O)N3CCN(c4ncc(C(=O)NO)cn4)CC3)cc2)cc1 [Compound 175]
 | 75.8 to 454 µM (≈ 38.5 to 231 µg/mL) | 828 nM | 6.513 | O=C(NO)c1cnc(N2CCN(S(=O)(=O)c3ccc(-c4cc(Cl)cc(Cl)c4)cc3)CC2)nc1 [Compound 176]
 | < 75.8 µM | 308 nM | 6.428 | O=C(NO)c1cnc(N2CCN(S(=O)(=O)c3ccc(-c4ccc(Cl)c(Cl)c4)cc3)CC2)nc1 [Compound 177]
 | < 75.8 µM | 75.5 nM | 7.99 | O=C(NO)c1cnc(N2CCN(S(=O)(=O)c3ccc(-c4ccc(F)cc4)cc3)CC2)nc1 [Compound 178]
 | 75.8 to 454 µM (≈ 34.4 to 206 µg/mL) | 119 nM | 7.146 | Cc1ccc(-c2ccc(S(=O)(=O)N3CCN(c4ncc(C(=O)NO)cn4)CC3)cc2)cc1 [Compound 179]
 | > 454 µM | 119 nM | 7.098 | CN(C)c1ccc2cc(S(=O)(=O)N3CCN(c4ncc(C(=O)NO)cn4)CC3)ccc2c1 [Compound 181]
 | < 75.8 µM | 87.1 nM | 7.634 | O=C(NO)c1cnc(N2CCN(S(=O)(=O)c3ccc(-c4ccccn4)s3)CC2)nc1 [Compound 182]
 | 75.8 to 454 µM (≈ 38.6 to 232 µg/mL) | 2320 nM | 7.631 | O=C(NO)c1cnc(N2CCN(S(=O)(=O)c3ccc(S(=O)(=O)c4ccccc4)s3)CC2)nc1 [Compound 183]
 | < 75.8 µM | 62.8 nM | 7.22 | O=C(NO)c1cnc(N2CCN(S(=O)(=O)c3ccc(-c4ccc(Cl)cc4)cc3)CC2)nc1 [Compound 184]
 | < 75.8 µM | 160 nM | 6.417 | O=C(NO)c1cnc(N2CCN(S(=O)(=O)c3ccc(-c4ccc(C(F)(F)F)cc4)cc3)CC2)nc1 [Compound 185]
 | 75.8 to 454 µM (≈ 39.3 to 236 µg/mL) | 558 nM | 6.539 | CN(c1ccccc1)c1ccc2cc(S(=O)(=O)N3CCN(c4ncc(C(=O)NO)cn4)CC3)ccc2c1 [Compound 186]

Source: patent publication US7205304B2, “Sulfonyl-Derivatives as novel inhibitors of histone deacetylase” (Janssen Pharmaceutica N.V., priority 2002, dated 2007)
